Experiments:
Assay in all cases: relative viability (nuclei count vs DMSO), 5 days (fraction); higher = more cells survive
17-AAG + Lapatinib = compound: C=CCNC1=C2C[C@@H](C)C[C@H](OC)[C@H](O)[C@@H](C)/C=C(\C)[C@H](OC(N)=O)[C@@H](OC)/C=C\C=C(/C)C(=O)NC(=CC1=O)C2=O [17-AAG] + CS(=O)(=O)CCNCc1ccc(-c2ccc3ncnc(Nc4ccc(OCc5cccc(F)c5)c(Cl)c4)c3c2)o1 [Lapatinib] (partner 2 µM)
Outline: (§1)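 Dosing by pin tool came one day after lung cancer cell lines were seeded in 1536-well plates, using either one drug or a fixed anchor-drug dose plus five library-drug doses (not always all listed) in √10 steps. After 5 days, nuclei were counted on 4× images. Relative viability is treated-well nuclei count divided by vehicle-well nuclei count, and values are medians of duplicate plates.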

17-AAG + Crizotinib = compound: C=CCNC1=C2C[C@@H](C)C[C@H](OC)[C@H](O)[C@@H](C)/C=C(\C)[C@H](OC(N)=O)[C@@H](OC)/C=C\C=C(/C)C(=O)NC(=CC1=O)C2=O [17-AAG] + C[C@@H](Oc1cc(-c2cnn(C3CCNCC3)c2)cnc1N)c1c(Cl)ccc(F)c1Cl [Crizotinib] (partner 1 µM)
Outline: as §1

17-AAG + Dasatinib = compound: C=CCNC1=C2C[C@@H](C)C[C@H](OC)[C@H](O)[C@@H](C)/C=C(\C)[C@H](OC(N)=O)[C@@H](OC)/C=C\C=C(/C)C(=O)NC(=CC1=O)C2=O [17-AAG] + Cc1nc(Nc2ncc(C(=O)Nc3c(C)cccc3Cl)s2)cc(N2CCN(CCO)CC2)n1 [Dasatinib] (partner 0.075 µM)
Outline: as §1

17-AAG + Pemetrexed = compound: C=CCNC1=C2C[C@@H](C)C[C@H](OC)[C@H](O)[C@@H](C)/C=C(\C)[C@H](OC(N)=O)[C@@H](OC)/C=C\C=C(/C)C(=O)NC(=CC1=O)C2=O [17-AAG] + Nc1nc2[nH]cc(CCc3ccc(C(=O)N[C@@H](CCC(=O)O)C(=O)O)cc3)c2c(=O)[nH]1 [Pemetrexed] (partner 0.2 µM)
Outline: as §1

Cell Line	relative viability (17-AAG + Lapatinib; first compound 0.00128 µM)	relative viability (17-AAG + Lapatinib; first compound 0.004048 µM)	relative viability (17-AAG + Lapatinib; first compound 0.0128 µM)	relative viability (17-AAG + Lapatinib; first compound 0.04048 µM)	relative viability (17-AAG + Lapatinib; first compound 0.128 µM)	relative viability (17-AAG + Crizotinib; first compound 0.00128 µM)	relative viability (17-AAG + Crizotinib; first compound 0.004048 µM)	relative viability (17-AAG + Crizotinib; first compound 0.0128 µM)	relative viability (17-AAG + Crizotinib; first compound 0.04048 µM)	relative viability (17-AAG + Crizotinib; first compound 0.128 µM)	relative viability (17-AAG + Dasatinib; first compound 0.00128 µM)	relative viability (17-AAG + Dasatinib; first compound 0.004048 µM)	relative viability (17-AAG + Dasatinib; first compound 0.0128 µM)	relative viability (17-AAG + Dasatinib; first compound 0.04048 µM)	relative viability (17-AAG + Dasatinib; first compound 0.128 µM)	relative viability (17-AAG + Pemetrexed; first compound 0.00128 µM)	relative viability (17-AAG + Pemetrexed; first compound 0.004048 µM)	relative viability (17-AAG + Pemetrexed; first compound 0.0128 µM)	relative viability (17-AAG + Pemetrexed; first compound 0.04048 µM)	relative viability (17-AAG + Pemetrexed; first compound 0.128 µM)
LCLC-97TM1	0.903	1.12	0.647	0.405	0.0945	0.325	0.387	0.433	0.395	0.295	0.796	0.813	0.777	0.224	0.159	0.188	0.204	0.186	0.206	0.116
HARA	0.694	0.811	0.692	0.831	0.325	1.05	1.05	1.06	1.12	0.725	0.234	0.278	0.261	0.284	0.141	0.256	0.257	0.29	0.198	0.147
HCC-78	1.12	–	0.994	0.603	0.296	0.378	–	0.351	0.273	0.235	0.358	0.508	0.403	0.359	0.193	0.902	0.926	0.919	0.879	0.836
NCI-H1666	0.682	0.595	0.234	0.261	0.219	1.04	0.853	0.288	0.305	0.215	0.783	0.718	0.309	0.35	0.295	0.921	0.877	0.908	0.515	0.517
NCI-H2405	1.04	0.784	0.193	0.203	0.138	0.868	0.837	0.922	0.303	0.163	0.195	0.173	0.167	0.128	0.149	1.05	0.956	0.267	0.186	0.156
PC-14	0.315	0.304	0.311	0.156	0.113	0.944	0.855	0.732	0.176	0.124	0.179	0.0725	0.0375	0.0586	0.0476	0.143	0.166	0.111	0.0924	0.0882
NCI-H2023	0.872	0.675	0.0806	0.106	0.0805	0.627	0.575	0.128	0.0736	0.063	0.572	0.281	0.0632	0.0704	0.059	0.268	0.137	0.0942	0.0647	0.0873
201T	1	1.04	0.991	0.999	0.512	1.04	1.07	1.02	0.886	0.805	0.551	0.618	0.438	0.352	0.262	0.317	0.342	0.361	0.23	0.213
NCI-H1915	0.883	1.06	0.894	0.571	0.0701	0.89	0.899	0.871	0.878	0.223	0.29	0.322	0.218	0.115	0.0794	0.521	0.462	0.422	0.191	0.057
NCI-H2009	1.16	0.954	0.816	0.424	0.0895	1.12	1.01	0.99	0.496	0.0881	0.313	0.298	0.304	0.229	0.0827	1.01	1.03	1.04	0.86	0.166
BEN	0.859	0.726	0.727	0.405	0.204	0.896	0.821	0.929	0.739	0.237	0.354	0.376	0.469	0.298	0.232	0.756	0.882	0.716	0.526	0.247
PC-3 [JPC-3]	0.486	0.442	0.444	–	0.472	0.956	0.99	0.833	–	0.91	1.02	0.966	1	–	0.815	1.23	1.12	1.18	0.491	0.85
SK-MES-1	0.55	0.559	0.405	0.188	0.145	1.02	1.01	0.822	0.224	0.144	0.358	0.249	0.11	0.106	0.101	0.951	0.781	0.284	0.171	0.153

— the supplement of paper PMC10307832
